Measurements taken from patent publication US11872209B2, “Treatment for primary biliary cholangitis” (Zydus Lifesciences Limited, priority 2016, dated 2024).
Entries after “also recorded” stand apart in the source; their conditions may differ. Counter-ions that a name gives are not always drawn.

Tested on: carbon tetrachloride-induced liver fibrosis
Assay: Carbon tetrachloride-induced liver fibrosis in male Sprague Dawley rats
Assay type: in vivo
Conditions: 0.4 and 4 mg/kg/day orally for 4 weeks with continued CCl4 injections
Procedure: To assess the effect of Compound of formula (Ia) on the progression of established hepatic fibrosis, fibrosis was induced in rats by twice weekly carbon tetrachloride (CCl4) injections for 2 weeks via an intraperitoneal route. Compound (Ia) (0.4 and 4 mg/kg/day), pioglitazone (10 mg/kg/day), fenofibrate (100 mg/kg/day) or vehicle (Tween 80 and 0.5% sodium salt of carboxymethylcellulose at ratio of 0.5:99.5) was then orally administered for 4 weeks to animals concomitantly with continued CCl4 injections. After 4 weeks of treatment, blood samples were collected 1 h post-dose, for estimation of non-fasted serum ALT and other serum parameters. All the animals were sacrificed; liver was quickly removed, weighed and fixed in 10% formalin for histological analysis or snap frozen in liquid nitrogen for other assays. Light microscopic examination of liver tissue was performed using standard hematoxylin and eosin (H&E) staining. Hepatic fibrosis was accessed by Masson's trichrome staining method.

Compound: CCO[C@@H](Cc1ccc(OCCn2c(C)ccc2-c2ccc(SC)cc2)cc1)C(=O)O [Compound (Ia), saroglitazar magnesium salt]
- Effect on CCl4-induced liver fibrosis (after 2 weeks of CCl4, listed as Compound of formula (Ia)): protected the animals from further deterioration and exhibited a dose-dependent reversal of CCl4-induced liver fibrosis; also recorded: protected the animals from further deterioration and showed dose dependent reversal of CCl4-induced liver fibrosis
- Microscopic quantification of fibrosis (H&E and Masson's trichrome staining of liver tissues) (FIG. 1): stopped the progression of established liver fibrosis and accelerated liver recovery
